Consider 21 compounds from patent US9775831B2, “Combinations comprising biphenyl derivatives for use in the treatment of HCV” (BRISTOL-MYERS SQUIBB COMPANY, priority 2013, dated 2017).

One assay has as its system genotype-1a variant with glutamine 30 changed to glutamate in the NS5A protein. The assay is described as follows: HCV replicon cell-based assay, NS5A synergy with BMS-790052. The conditions noted are these: genotype 1a Q→E variant; test compound titrated in combination with NS5A-targeting compound (BMS-790052 fixed at 200 nM). An excerpt: The NS5A synergistic inhibitory effect of test compounds can be determined using various amounts of an NS5A-targeting compound with titration of a second compound of interest. […] In one embodiment, the HCV genotype strain can be genotype 1a containing a change at amino acid 30 of the NS5A protein consisting of glutamine to glutamate. The test compound can be chosen from compounds listed above or from others present in the literature.
On to `CC(C)[C@H](CC(=O)NCC1(c2ccc(F)cc2)CCCC1)c1ncc(-c2ccc(-c3ccc(-c4cnc([C@@H](CC(=O)NCC5(c6ccc(F)cc6)CCCC5)C(C)C)[nH]4)cc3)cc2)[nH]1` [MD-32], for which the “Fold Synergistic (1a-QE)” value is >100 Fold. Still for that read-out and setting: as for `CC(C)[C@H](CC(=O)NC1(C#N)CC1)c1ncc(-c2ccc(-c3ccc(-c4cnc([C@@H](CC(=O)NC5(C(N)=O)CC5)C(C)C)[nH]4)cc3)cc2)[nH]1` [MD-33], the figure is <10 Fold. On the same count and under the same terms, with `CCO[C@H](CC(=O)NCC(C)C)C(=O)N[C@H](c1ncc(-c2ccc(-c3ccc(-c4cnc([C@@H](NC(=O)[C@@H](CC(=O)NCC(C)C)OCC)C(C)(C)C)[nH]4)cc3)cc2)[nH]1)C(C)(C)C` [MD-34] the figure was >100 Fold. With `CC(C)CNC(=O)C[C@H](c1ncc(-c2ccc(-c3ccc(-c4cnc([C@@H](CC(=O)NCC(C)C)C(C)C)[nH]4)cc3)cc2)[nH]1)C(C)C` [MD-35], the “Fold Synergistic (1a-QE)” value is listed as >10 Fold. Still for that read-out and setting: as for `C[C@H](CC(=O)N1CCOCC1)c1ncc(-c2ccc(-c3ccc(-c4cnc([C@H](C)CC(=O)N5CCOCC5)[nH]4)cc3)cc2)[nH]1` [MD-37], the figure is >10 Fold; as for `C[C@H](CC(=O)NC1CCOCC1)c1ncc(-c2ccc(-c3ccc(-c4cnc([C@H](C)CC(=O)NC5CCOCC5)[nH]4)cc3)cc2)[nH]1` [MD-39], >10 Fold. The same measure, in the same setting: as for `CC(C)[C@H](CC(=O)NCC(C)(C)CO)c1ncc(-c2ccc(-c3ccc(-c4cnc([C@@H](CC(=O)NCC(C)(C)CO)C(C)C)[nH]4)cc3)cc2)[nH]1` [MD-42], the figure is >10 Fold; as for `CCCN(CC1CC1)C(=O)C[C@H](c1ncc(-c2ccc(-c3ccc(-c4cnc([C@@H](CC(=O)N(CCC)CC5CC5)C(C)C)[nH]4)cc3)cc2)[nH]1)C(C)C` [MD-44], >10 Fold. Still for that read-out and setting: as for `CCC(CC)CNC(=O)C[C@H](c1ncc(-c2ccc(-c3ccc(-c4cnc([C@@H](CC(=O)NCC(CC)CC)C(C)C)[nH]4)cc3)cc2)[nH]1)C(C)C` [MD-45], the figure is >100 Fold; as for `CC(C)[C@H](CC(=O)NCC(C)(C)c1ccccc1)c1ncc(-c2ccc(-c3ccc(-c4cnc([C@@H](CC(=O)NCC(C)(C)c5ccccc5)C(C)C)[nH]4)cc3)cc2)[nH]1` [MD-47], >100 Fold; as for `CC(C)NC(=O)CN(C)C(=O)C[C@H](c1ncc(-c2ccc(-c3ccc(-c4cnc([C@@H](CC(=O)N(C)CC(=O)NC(C)C)C(C)C)[nH]4)cc3)cc2)[nH]1)C(C)C` [MD-48], <10 Fold. Consider `CC(C)[C@H](CC(=O)N(C)CC(C)(C)C)c1ncc(-c2ccc(-c3ccc(-c4cnc([C@@H](CC(=O)N(C)CC(C)(C)C)C(C)C)[nH]4)cc3)cc2)[nH]1` [MD-49], for which the “Fold Synergistic (1a-QE)” value is listed as >10 Fold. Still for that read-out and setting: with `CC(C)[C@H](CC(=O)N(C)C1CCOCC1)c1ncc(-c2ccc(-c3ccc(-c4cnc([C@@H](CC(=O)N(C)C5CCOCC5)C(C)C)[nH]4)cc3)cc2)[nH]1` [MD-50] the figure was <10 Fold.

For the compound `CC(C)[C@H](CC(=O)NCC(C)(C)C(N)=O)c1ncc(-c2ccc(-c3ccc(-c4cnc([C@@H](CC(=O)NCC(C)(C)C(N)=O)C(C)C)[nH]4)cc3)cc2)[nH]1` [MD-51], the “Fold Synergistic (1a-QE)” value was >10 Fold. On the same count and under the same terms, as for `CC(C)[C@H](CC(=O)N(Cc1ccccc1)C(C)C)c1ncc(-c2ccc(-c3ccc(-c4cnc([C@@H](CC(=O)N(Cc5ccccc5)C(C)C)C(C)C)[nH]4)cc3)cc2)[nH]1` [MD-52], the figure is >100 Fold; as for `CC(C)[C@H](CC(=O)N1CCN(C)C(=O)C1)c1ncc(-c2ccc(-c3ccc(-c4cnc([C@@H](CC(=O)N5CCN(C)C(=O)C5)C(C)C)[nH]4)cc3)cc2)[nH]1` [MD-53], <10 Fold; as for `CC(C)[C@H](CC(=O)NCC1(O)CCC1)c1ncc(-c2ccc(-c3ccc(-c4cnc([C@@H](CC(=O)NCC5(O)CCC5)C(C)C)[nH]4)cc3)cc2)[nH]1` [MD-54], >10 Fold.

As to `CCOC(=O)N1CCN(C(=O)C[C@@H](CCC(F)(F)F)c2ncc(-c3ccc(-c4ccc(-c5cnc([C@H](CCC(F)(F)F)CC(=O)N6CCN(C(=O)OCC)CC6)[nH]5)cc4)cc3)[nH]2)CC1` [MD-58], the “Fold Synergistic (1a-QE)” value was >10 Fold. With `O=C(C[C@@H](CCC(F)(F)F)c1ncc(-c2ccc(-c3ccc(-c4cnc([C@H](CCC(F)(F)F)CC(=O)NC5CCOCC5)[nH]4)cc3)cc2)[nH]1)NC1CCOCC1` [MD-61], the “Fold Synergistic (1a-QE)” value was <10 Fold.

For another assay the test system is unchanged.
Test: not given
Particulars: BMS-790052 titrated with P-55 fixed at 200 nM; genotype-1a Q30E variant; cited from earlier work.
`COC(=O)N[C@H](C(=O)N1CCC[C@H]1c1nc(-c2ccc(-c3ccc(-c4c[nH]c([C@@H]5CCCN5C(=O)[C@@H](NC(=O)OC)C(C)C)n4)cc3)cc2)c[nH]1)C(C)C` [BMS-790052]: the “reciprocal synergistic inhibitory effect for the combination” value is ~100 fold.

Staying with this assay, now noted: P-55 titrated with BMS-790052 fixed at 200 nM; genotype-1a Q30E variant; cited from earlier work.
For `CC(C)CC(=O)N[C@H](c1ncc(-c2ccc(-c3ccc(-c4cnc([C@@H](NC(=O)CC(C)C)C(C)C)[nH]4)cc3)cc2)[nH]1)C(C)C` [Example P-55], the “synergistic inhibitory effect for the combination” value was > 100 fold.

Staying with this assay, now noted: genotype-1a Q30E NS5A variant replicon; compound alone; read-out: EC50, titrated singly; cited from earlier work.
In general, EC50 refers to the midpoint of the concentration-response curve. As for `COC(=O)N[C@H](C(=O)N1CCC[C@H]1c1nc(-c2ccc(-c3ccc(-c4c[nH]c([C@@H]5CCCN5C(=O)[C@@H](NC(=O)OC)C(C)C)n4)cc3)cc2)c[nH]1)C(C)C` [BMS-790052], the EC50 is ~200 nM. In the case of `CC(C)CC(=O)N[C@H](c1ncc(-c2ccc(-c3ccc(-c4cnc([C@@H](NC(=O)CC(C)C)C(C)C)[nH]4)cc3)cc2)[nH]1)C(C)C` [Example P-55], the EC50 was > 200 nM.

Staying with this assay, now noted: genotype-1a Q30E variant; BMS-790052 fixed at 200 nM; read-out: EC50 of P-55 in the presence of a fixed amount of BMS-790052; cited from earlier work.
Regarding `CC(C)CC(=O)N[C@H](c1ncc(-c2ccc(-c3ccc(-c4cnc([C@@H](NC(=O)CC(C)C)C(C)C)[nH]4)cc3)cc2)[nH]1)C(C)C` [Example P-55], the EC50 is ~2 nM.

The same assay, now with this note: genotype-1a Q30E variant; P-55 fixed at 200 nM; read-out: EC50 of BMS-790052 in the presence of a fixed amount of P-55; cited from earlier work.
In the case of `COC(=O)N[C@H](C(=O)N1CCC[C@H]1c1nc(-c2ccc(-c3ccc(-c4c[nH]c([C@@H]5CCCN5C(=O)[C@@H](NC(=O)OC)C(C)C)n4)cc3)cc2)c[nH]1)C(C)C` [BMS-790052], the EC50 is ~2 nM.
